Values after ≈ are worked out from the molar mass of the structure shown. Where a name gives a salt, the structure may show the parent alone.
Tests used:
Candida glabrata = experiment: Microdilution assay (MIC); type: cell-based; details: Nakaseomyces glabratus, hydrochlorides used, arithmetic average of two determinations, read-out: Minimal inhibitory concentration (MIC)
Experimental: (§1) For comparison, the N-undecylperhydroisoquinoline (C) was also tested here. For solubility reasons, the hydrochlorides were used in this assay (Table 2).

Saccharomyces cerevisiae = experiment: Microdilution assay (MIC); type: cell-based; details: hydrochlorides used, arithmetic average of two determinations, read-out: Minimal inhibitory concentration (MIC)
Experimental: as §1

Yarrowia lipolytica = experiment: Microdilution assay (MIC); type: cell-based; details: hydrochlorides used, arithmetic average of two determinations, read-out: Minimal inhibitory concentration (MIC)
Experimental: as §1

[1] = test system: human leukemia cell line (HL 60); experiment: MTT test (cytotoxicity); type: cell-based; details: HL 60 cell line, arithmetic average of three determinations
Experimental: The cytotoxicity of the compounds 3a–d, 5a–d, and 8b was determined in an MTT test against a human leukemia cell line (HL 60).

Δ8,7-isomerase [2] = molecular target: T1, Δ8,7-isomerase (Saccharomyces cerevisiae, UniProt P32352); experiment: Whole-cell assay for identification of the target enzyme in ergosterol biosynthesis (sterol pattern by GLC-MS); type: cell-based; details: Candida glabrata and Saccharomyces cerevisiae incubated with test compound, lichesterol accumulation indicates Δ8,7-isomerase inhibition
T1 construct: whole-cell assay for identification of the target enzyme in ergosterol biosynthesis; endogenous in cells; host or cells: Saccharomyces cerevisiae and Candida glabrata whole cells
Experimental: The compounds 5c and 7 were also subjected to our whole-cell assay for identification of the target enzyme in ergosterol biosynthesis. In this assay, the strains Candida glabrata and Saccharomyces cerevisiae were incubated with the test compounds, and after cell lysis, the changes in the sterol pattern were analyzed by GLC-MS. The accumulation of the Δ8(9)-sterol lichesterol (ergosta-5,8,22-trien-3β-ol) clearly indicates an inhibition of the enzyme Δ8,7-isomerase.

Δ8,7-isomerase [3] = test system: Δ8,7-isomerase; set-up: method as in PMID 24464607; details: cited from earlier work
[4] = test system: Aspergillus niger (DSMZ-Nr. 1988); experiment: Agar diffusion assay; type: cell-based; details: A. niger, GI = growth inhibition, read-out: diameter of zones of total inhibition
Experimental: (§2) The resulting compounds and known compounds, 1-undecylpiperidine (7) and 1-decylpiperazine (8a), as well as 1-methyl-4-undecylpiperazine (8b) (prepared in the same way), were tested in an agar diffusion assay against Gram-positive (Staphylococcus equorum (DSMZ-Nr. 20675), Streptococcus entericus (DSZM-Nr. 14446)) and Gram-negative bacteria (Escherichia coli (DSMZ-Nr. 426), Pseudomonas marginalis (DSMZ-Nr. 7527)), as well as the fungi Yarrowia lipolytica (DSMZ-Nr. 1345), Candida glabrata (DSMZ-Nr.11226), Aspergillus niger (DSMZ-Nr. 1988), and Hyphopichia burtonii (DSMZ-Nr. 70663) (Table 1).

[5] = test system: Candida glabrata (DSMZ-Nr.11226); experiment: Agar diffusion assay; type: cell-based; details: Nakaseomyces glabratus, C. glabrata, GI = growth inhibition, read-out: diameter of zones of total inhibition
Experimental: as §2

[6] = test system: Escherichia coli (DSMZ-Nr. 426); experiment: Agar diffusion assay; type: cell-based; details: E. coli, GI = growth inhibition, read-out: diameter of zones of total inhibition
Experimental: as §2

[7] = test system: Hyphopichia burtonii (DSMZ-Nr. 70663); experiment: Agar diffusion assay; type: cell-based; details: H. burtonii, GI = growth inhibition, read-out: diameter of zones of total inhibition
Experimental: as §2

[8] = test system: Pseudomonas marginalis (DSMZ-Nr. 7527); experiment: Agar diffusion assay; type: cell-based; details: P. marginalis, GI = growth inhibition, read-out: diameter of zones of total inhibition
Experimental: as §2

[9] = test system: Staphylococcus equorum (DSMZ-Nr. 20675); experiment: Agar diffusion assay; type: cell-based; details: read-out: diameter of zones of total inhibition
Experimental: as §2

[10] = test system: Streptococcus entericus (DSZM-Nr. 14446); experiment: Agar diffusion assay; type: cell-based; details: S. entericus, GI = growth inhibition, read-out: diameter of zones of total inhibition
Experimental: as §2

[11] = test system: Yarrowia lipolytica (DSMZ-Nr. 1345); experiment: Agar diffusion assay; type: cell-based; details: Y. lipolytica, GI = growth inhibition, read-out: diameter of zones of total inhibition
Experimental: as §2

Candida spp. = test system: Candida spp.; set-up: method as in earlier work; details: printed in the Candida glabrata column; cited from earlier work

T1 sequence (P32352 whole entry, stated change not applied): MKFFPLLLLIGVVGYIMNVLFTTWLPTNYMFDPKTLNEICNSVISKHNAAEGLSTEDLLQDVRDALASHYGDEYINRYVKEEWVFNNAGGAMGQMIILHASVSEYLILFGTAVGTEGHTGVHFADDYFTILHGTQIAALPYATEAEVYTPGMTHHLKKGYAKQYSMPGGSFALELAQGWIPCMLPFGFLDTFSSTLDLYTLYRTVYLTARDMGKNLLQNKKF

| Molecule | MIC (Candida glabrata) | MIC (Saccharomyces cerevisiae) | MIC (Yarrowia lipolytica) | change in sterol pattern / target enzyme in ergosterol biosynthesis (Δ8,7-isomerase [2]) | zone of inhibition at 50 µg/disc [4] | zone of inhibition at 50 µg/disc [5] | zone of inhibition at 50 µg/disc [7] | zone of inhibition at 50 µg/disc [11] | MIC90 Candida spp. (Candida spp.) | other results |
| --- | --- | --- | --- | --- | --- | --- | --- | --- | --- | --- |
| CCCCCCCCCCCN1CCC[C@@H]2CCCC[C@H]21 (racemic) [Compound 5c, (±)-trans-1-Undecyldecahydroquinoline hydrochloride] | 25 µg/mL | 0.25 µg/mL | 5 µg/mL | accumulation of lichesterol | – | – | – | – | – | IC50 [1]: 7 µM; change in sterol pattern / target enzyme in ergosterol biosynthesis (Δ8,7-isomerase [2]; listed as N-undecylperhydroquinoline): inhibitor of Δ8,7-isomerase |
| CCCCCCCCCCCN1CC[C@H]2CCCC[C@@H]2C1 (relative stereo) [C, N-n-undecyl-trans-decahydroisoquinoline, reference compound] | 5 µg/mL (≈ 17 µM) | 0.1 µg/mL (≈ 0.341 µM) | 1.75 µg/mL (≈ 5.96 µM) | – | – | – | – | – | – | antifungal mechanism (enzyme inhibited) (Δ8,7-isomerase [3]): potent antifungal inhibiting the enzyme Δ8,7-isomerase |
| CCCCCCCCCCCN1CCCCC1 [Compound 7, 1-undecylpiperidine, reference compound] | 12.5 µg/mL (≈ 52.2 µM) | 1.75 µg/mL (≈ 7.31 µM) | 7.5 µg/mL (≈ 31.3 µM) | accumulation of lichesterol | 0 mm | 8 mm | 12 mm | 22 mm | – | zone of inhibition at 50 µg/disc [6]: 7 mm; zone of inhibition at 50 µg/disc [8]: 8 mm; zone of inhibition at 50 µg/disc [9]: 13 mm; zone of inhibition at 50 µg/disc [10]: 17 mm |
| Clc1ccccc1C(c1ccccc1)(c1ccccc1)n1ccnc1 [clotrimazole, reference compound] | – | – | – | – | 15 mm | 13 mm | 25 mm | 15 mm | 1 (MIC90 Candida spp.) [17] µg/mL | – |
| OC(Cn1cncn1)(Cn1cncn1)c1ccc(F)cc1F [fluconazole] | – | – | – | – | – | – | – | – | 32 (MIC90 Candida spp.) [17] µg/mL | – |
| nystatine B | – | – | – | – | – | – | – | – | 4 (MIC90 Candida spp.) [17] µg/mL | – |
